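Test compounds were applied to cells in 96-well plates for 48 hours at 5 doses. TGI: concentration producing complete growth inhibition.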
Experiments:
Assay in all cases: NCI anticancer screen, dose series, 48 h
CAKI-1 renal = system: CAKI-1 renal
UO-31 renal = system: UO-31 renal
SNB-75 CNS = system: SNB-75 CNS
HCC-2998 colon = system: HCC-2998 colon
SF-539 CNS = system: SF-539 CNS
TK-10 renal = system: TK-10 renal
PC-3 prostate = system: PC-3 prostate
RXF 393 renal = system: RXF 393 renal
MDA-N = system: MDA-N
OVCAR-5 ovarian = system: OVCAR-5 ovarian
HOP-62 NSCLC = system: HOP-62 NSCLC
MALME-3M melanoma = system: MALME-3M melanoma
MDA-MB-231 breast = system: MDA-MB-231 breast
SN12C renal = system: SN12C renal
UACC-257 melanoma = system: UACC-257 melanoma
U251 CNS = system: U251 CNS
MDA-MB-435 = system: MDA-MB-435
NCI-H23 lung = system: NCI-H23 lung
MOLT-4 leukemia = system: MOLT-4 leukemia
LOX IMVI melanoma = system: LOX IMVI melanoma
UACC-62 melanoma = system: UACC-62 melanoma
EKVX NSCLC = system: EKVX NSCLC
OVCAR-4 ovarian = system: OVCAR-4 ovarian
BT-549 breast = system: BT-549 breast
HCT-15 colon = system: HCT-15 colon
ACHN renal = system: ACHN renal
NCI/ADR-RES ovarian = system: NCI/ADR-RES ovarian
NCI-H226 lung = system: NCI-H226 lung
HS 578T breast = system: HS 578T breast
NCI-H522 lung = system: NCI-H522 lung
KM12 colon = system: KM12 colon
COLO 205 colon = system: COLO 205 colon
OVCAR-8 ovarian = system: OVCAR-8 ovarian
M14 melanoma = system: M14 melanoma
SW-620 colon = system: SW-620 colon
SK-MEL-28 melanoma = system: SK-MEL-28 melanoma
RPMI-8226 leukemia = system: RPMI-8226 leukemia
IGROV1 ovarian = system: IGROV1 ovarian
SR leukemia = system: SR leukemia
HCT-116 colon = system: HCT-116 colon
A549 NSCLC = system: A549 NSCLC
SNB-19 CNS = system: SNB-19 CNS
SK-OV-3 ovarian = system: SK-OV-3 ovarian
K-562 leukemia = system: K-562 leukemia
HOP-92 NSCLC = system: HOP-92 NSCLC
SK-MEL-2 melanoma = system: SK-MEL-2 melanoma
NCI-H460 lung = system: NCI-H460 lung
SF-295 CNS = system: SF-295 CNS
HT29 colon = system: HT29 colon
OVCAR-3 ovarian = system: OVCAR-3 ovarian
CCRF-CEM leukemia = system: CCRF-CEM leukemia
MCF7 breast = system: MCF7 breast
T-47D breast = system: T-47D breast
SK-MEL-5 melanoma = system: SK-MEL-5 melanoma
786-0 renal = system: 786-0 renal
DU-145 prostate = system: DU-145 prostate
SF-268 CNS = system: SF-268 CNS
A498 renal = system: A498 renal
HL-60(TB) leukemia = system: HL-60(TB) leukemia

## Cn1c2ccccc2c2c3c(c4c5ccccc5n(C5OC(CO)C(O)C(O)C5O)c4c21)C(=O)OC3=O (stereo unspecified)
CAKI-1 renal
  TGI: > 100 µM
UO-31 renal
  TGI: > 100 µM
SNB-75 CNS
  TGI: > 100 µM
HCC-2998 colon
  TGI: > 100 µM
SF-539 CNS
  TGI: > 100 µM
TK-10 renal
  TGI: > 100 µM
PC-3 prostate
  TGI: > 100 µM
RXF 393 renal
  TGI: > 100 µM
MDA-N
  TGI: > 100 µM
OVCAR-5 ovarian
  TGI: > 100 µM
HOP-62 NSCLC
  TGI: > 100 µM
MALME-3M melanoma
  TGI: > 100 µM
MDA-MB-231 breast
  TGI: > 100 µM
SN12C renal
  TGI: > 100 µM
UACC-257 melanoma
  TGI: > 100 µM
U251 CNS
  TGI: > 100 µM
MDA-MB-435
  TGI: > 100 µM
NCI-H23 lung
  TGI: > 100 µM
MOLT-4 leukemia
  TGI: > 100 µM
LOX IMVI melanoma
  TGI: > 100 µM
UACC-62 melanoma
  TGI: > 100 µM
EKVX NSCLC
  TGI: > 100 µM
OVCAR-4 ovarian
  TGI: > 100 µM
BT-549 breast
  TGI: > 100 µM
HCT-15 colon
  TGI: > 100 µM
ACHN renal
  TGI: > 100 µM
NCI/ADR-RES ovarian
  TGI: > 100 µM
NCI-H226 lung
  TGI: > 100 µM
HS 578T breast
  TGI: > 100 µM
NCI-H522 lung
  TGI: > 100 µM
KM12 colon
  TGI: > 100 µM
COLO 205 colon
  TGI: > 100 µM
OVCAR-8 ovarian
  TGI: > 100 µM
M14 melanoma
  TGI: > 100 µM
SW-620 colon
  TGI: > 100 µM
SK-MEL-28 melanoma
  TGI: > 100 µM
RPMI-8226 leukemia
  TGI: > 100 µM
IGROV1 ovarian
  TGI: > 100 µM
SR leukemia
  TGI: > 100 µM
HCT-116 colon
  TGI: > 100 µM
A549 NSCLC
  TGI: > 100 µM
SNB-19 CNS
  TGI: > 100 µM
SK-OV-3 ovarian
  TGI: > 100 µM
K-562 leukemia
  TGI: > 100 µM
HOP-92 NSCLC
  TGI: > 100 µM
SK-MEL-2 melanoma
  TGI: > 100 µM
NCI-H460 lung
  TGI: > 100 µM
SF-295 CNS
  TGI: > 100 µM
HT29 colon
  TGI: > 100 µM
OVCAR-3 ovarian
  TGI: > 100 µM
CCRF-CEM leukemia
  TGI: > 100 µM
MCF7 breast
  TGI: > 100 µM
T-47D breast
  TGI: > 100 µM
SK-MEL-5 melanoma
  TGI: > 100 µM
786-0 renal
  TGI: > 100 µM
DU-145 prostate
  TGI: > 100 µM
SF-268 CNS
  TGI: > 100 µM
A498 renal
  TGI: > 100 µM

## COCN1C(=N)C(C(=O)OC(C)(C)C)=C2C=C(O)C=CC21C (stereo unspecified)
CAKI-1 renal
  TGI: 28.5 µM
UO-31 renal
  TGI: 26.4 µM
SNB-75 CNS
  TGI: 33.6 µM
HCC-2998 colon
  TGI: 40.5 µM
SF-539 CNS
  TGI: 33.6 µM
TK-10 renal
  TGI: 26.2 µM
PC-3 prostate
  TGI: 30.6 µM
RXF 393 renal
  TGI: 19.3 µM
MDA-N
  TGI: 31.9 µM
OVCAR-5 ovarian
  TGI: 32.5 µM
HOP-62 NSCLC
  TGI: 75.2 µM
MALME-3M melanoma
  TGI: 21.3 µM
MDA-MB-231 breast
  TGI: 29 µM
SN12C renal
  TGI: 73.9 µM
UACC-257 melanoma
  TGI: 22.5 µM
U251 CNS
  TGI: 30.6 µM
MDA-MB-435
  TGI: 27.4 µM
NCI-H23 lung
  TGI: 30.2 µM
MOLT-4 leukemia
  TGI: > 100 µM
LOX IMVI melanoma
  TGI: 26.5 µM
UACC-62 melanoma
  TGI: 29.1 µM
EKVX NSCLC
  TGI: 37.9 µM
OVCAR-4 ovarian
  TGI: 26.6 µM
BT-549 breast
  TGI: 12.8 µM
HCT-15 colon
  TGI: 27.5 µM
ACHN renal
  TGI: 19.6 µM
NCI/ADR-RES ovarian
  TGI: 69 µM
NCI-H226 lung
  TGI: 30.6 µM
HL-60(TB) leukemia
  TGI: 83.3 µM
HS 578T breast
  TGI: 82.9 µM
NCI-H522 lung
  TGI: 13.5 µM
KM12 colon
  TGI: 30.5 µM
COLO 205 colon
  TGI: 17.5 µM
OVCAR-8 ovarian
  TGI: 55.7 µM
M14 melanoma
  TGI: 29.5 µM
SW-620 colon
  TGI: 17.5 µM
SK-MEL-28 melanoma
  TGI: 36.3 µM
RPMI-8226 leukemia
  TGI: > 100 µM
IGROV1 ovarian
  TGI: 28.2 µM
SR leukemia
  TGI: > 100 µM
HCT-116 colon
  TGI: 20.7 µM
A549 NSCLC
  TGI: 34.9 µM
SNB-19 CNS
  TGI: > 100 µM
SK-OV-3 ovarian
  TGI: 84 µM
K-562 leukemia
  TGI: > 100 µM
HOP-92 NSCLC
  TGI: 17.4 µM
SK-MEL-2 melanoma
  TGI: 31.9 µM
NCI-H460 lung
  TGI: 44.9 µM
SF-295 CNS
  TGI: > 100 µM
HT29 colon
  TGI: 19.9 µM
CCRF-CEM leukemia
  TGI: 50.7 µM
MCF7 breast
  TGI: 22.9 µM
T-47D breast
  TGI: 9.93 µM
SK-MEL-5 melanoma
  TGI: 28.6 µM
786-0 renal
  TGI: 24.7 µM
DU-145 prostate
  TGI: 24.2 µM
SF-268 CNS
  TGI: 29.5 µM
A498 renal
  TGI: 36.9 µM
